Test results published in patent US5198568A, “Compounds useful in enzymatic resolution systems and their preparation” (priority 1991, dated 1993).
Counter-ions that a name gives are not always drawn.

Columns and labels:
Assay type in all cases: biochemical
[1] = test system: lipase from Candida cylindracea (Meito Sangyo, Lipase OF); experiment: Activity of the carrier lipase against the ester
[2] = test system: protease Prozyme 6 from Aspergillus oryzae (Amano, Enzyme F); experiment: Homogeneous aqueous enzymatic resolution (ester hydrolysis), Enzyme F
Method: (§1) The enzymatic reaction mixtures were capped and briefly shaken until all the substrate had dissolved, and the enzyme had completely dissolved or dispersed. […] Evaporation of the ether left a white solid. Rotations were measured at c=1 in CHCl3.
as §1
The reaction was started by adding 100 mg of the protease (F) from the fungus Aspergillus oryzae (from Amano Enzyme Corporation, Prozyme 6, 60,000 units per mg of solid).
After 20 hours at room temperature, the solution was acidified to pH 2 and extracted with 3 volumes of diethyl ether. The aqueous phase was saved for subsequent workup. The ether phase was washed with two volumes of distilled water and then one volume of saturated sodium chloride, and then it was dried over MgSO4 and subsequently evaporated to dryness. The resolved ibuprofen product recovered was 930 mg of white powder, indicating 45% conversion of racemic ester to acid. The optical rotation was -0.580° (measured at c=1 in ethanol), indicating the R isomer of ibuprofen.
35 mg of protease Enzyme F, as the commercial preparation Prozyme 6, were added to the aqueous solution. The reaction flask was capped, and briefly shaken until all the enzyme had dissolved or dispersed. […] The resulting mixture was diluted with one volume of water and was extracted with diethyl ether (2 times 200 ml). The ether layers were combined and backwashed with water (2 times 200 ml), saturated NaCl solution (200 ml), and then dried over MgSO4.
In this control run, a 0.5M ester solution of (1) was prepared in 325 ml of 0.1M sodium phosphate buffer (pH 7.0). The reaction was started by adding 3 gm of the above enzyme (F). The pH was controlled at 7.0 with 8.22M sodium hydroxide. After 6.49 hours at 30 ° C., 6.63 ml of hydroxide were added, indicating 37.7% conversion. The reaction was allowed to continue overnight and, after 23.1 hours, a total of 7.2 ml of sodium hydroxide were added, indicating 40.9% conversion.

[3] = test system: Protease XXIII from Aspergillus oryzae (Sigma, Enzyme A); experiment: Homogeneous aqueous enzymatic resolution (ester hydrolysis), Enzyme A; conditions: acid product; 100 mg enzyme A, pH 7.0, 20-22 C, 20 hours
Method: No further purification was performed.

[4] = test system: protease Prozyme 6 from Aspergillus oryzae (Amano, Enzyme F); experiment: Asymmetric hydrolysis in an extractive membrane reactor, enzyme not associated with the membrane, Enzyme F
Excerpt: Hexane was recirculated through the lumen or bores of the fibers in the module. The aqueous solution in the shell contained the enzyme and ester. While the cellulose membrane is water-wet, the membrane rejects the macromolecular enzyme (molecular weight 18,000). Therefore, the enzyme resides solely in the aqueous ester solution. As the ibuprofen acid was formed, it was extracted into the hexane phase, thereby reducing the effect of product (ibuprofen acid) inhibition on the activity of the enzyme.
The aqueous phase used to extract the ibuprofen acid from hexane in this module contained 0.1M sodium carbonate buffer at pH 9.5. The pH was maintained at this value by the addition of 8.22M sodium hydroxide as required.
In this Example, the aqueous stream in the extractive membrane reactor module consisted of a solution of the sulfomethyl ester of ibuprofen (1), which solution was prepared by adding 32.51 gm of the sodium salt of the ester (at 75% chemical purity) to 1000 ml of 0.1M sodium phosphate buffer (pH 7.0). The reaction was started by adding 2 gm of the protease (F) from the fungus Aspergillus oryzae (from Amano Enzyme Corporation, Prozyme 6, 60,000 units per gm of solid). […]
The optical rotation of the recovered product was measured by polarimetry; the experimentally determined value for [α]D was -56.7° (measured at c=0.815 in ethanol), thereby indicating the R isomer of ibuprofen. The sample was also analyzed by chiral HPLC using a Bakerbond DNBPG (covalent) column (4.6×250 mm), with 96.9% hexane:3.0% 2-propanol:0.1% acetonitrile as the mobile phase at 2 ml/min after derivatization with naphthalene amine. […] The optical purity or enantiomeric excess of this R ibuprofen sample as determined by this chiral HPLC procedure was 99.3% (i.e., enantiomeric excess of R ibuprofen).
The aqueous phase at pH 7.0 (as recovered from the extractive membrane reactor) was mixed with 280 gm of sodium chloride to salt out the remaining unconverted ester. […] The optical rotation (as measured by polarimetry) was [α]D =+57.4° (c=1.29 in ethanol), indicating the S isomer of ibuprofen. […]

[5] = test system: protease Prozyme 6 from Aspergillus oryzae (Amano, Enzyme F); experiment: Asymmetric hydrolysis in an extractive dispersion reactor, Enzyme F; conditions: 100 mg Prozyme 6, 3.38 gm ester in 100 ml buffer pH 7.0 plus 100 ml hexane, room temperature, 3.5 hours
Method: In this Example, the hexane was dispersed in the reaction vessel to extract the inhibitory ibuprofen acid as it is formed. The reaction was started by adding 100 mg of the protease from the fungus Aspergillus oryzae (from Amano Enzyme Corporation, Prozyme 6, 60,000 units per mg of solid).
After 3.5 hours at room temperature with vigorous stirring, the solution was acidified to pH 2 and extracted with 2 volumes of hexane. The aqueous phase was saved for subsequent workup. The hexane phase was dried over MgSO4 and evaporated to dryness. The resolved ibuprofen product so recovered consisted of 490 mg of white powder, indicating 24% conversion. The optical rotation was -0.568° (c=1.015 in ethanol), indicating the R isomer of ibuprofen.

[6] = molecular target: T1, Protease XXVII, Nagarse (Sigma, Enzyme D) (Bacillus amyloliquefaciens, UniProt P00782); experiment: Homogeneous aqueous enzymatic resolution (ester hydrolysis), Enzyme D; conditions: 100 mg enzyme D, 10 mmol ester in 100 ml 0.2 M phosphate buffer pH 7.0, 20-22 C, 20 hours
T1 construct: purchased Sigma
T1 sequence (P00782 108-382): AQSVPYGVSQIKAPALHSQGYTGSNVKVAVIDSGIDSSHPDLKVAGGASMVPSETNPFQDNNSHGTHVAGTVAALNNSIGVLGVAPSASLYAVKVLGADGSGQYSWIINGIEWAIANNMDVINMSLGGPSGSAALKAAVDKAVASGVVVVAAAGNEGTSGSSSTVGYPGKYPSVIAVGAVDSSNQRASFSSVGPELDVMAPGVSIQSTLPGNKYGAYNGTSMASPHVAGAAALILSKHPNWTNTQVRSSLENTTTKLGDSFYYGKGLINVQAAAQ

[7] = test system: Protease XXIV, bacterial protease (Sigma, Enzyme J); experiment: pH-stat rate of hydrolysis of single enantiomers, Enzyme J; conditions: 50 mM single enantiomer, 50 mM buffer pH 7.6, enzyme J
Method: (§2) 15 ml of a solution containing one enantiomer of the ester at a concentration of 50 mM, and Na3 PO4 buffer at 50 mM and pH 7.6 was observed using a pH stat device. 0.1 ml of a 50 mg/ml solution of Enzyme J, made up from the commercially available preparation in 50 mM Na3 PO4 buffer at pH 7.6, were added. Rates of hydrolysis of both enantiomers of the ester compound were determined for the enzyme. The ratio of the rates of hydrolysis for the two enantiomers for the two enantiomers with respect to the enzyme indicate the stereospecificity of that enzyme's hydrolytic action on the racemic mixture of the ester. No evidence for the hydrolysis of the acetylthio ester portion of the substrate molecule was found.

[8] = molecular target: T2, Protease VIII, Subtilopeptidase A (subtilisin Carlsberg) (Sigma, Enzyme B) (Bacillus licheniformis, UniProt P00780); experiment: pH-stat rate of hydrolysis of single enantiomers, Enzyme B; conditions: 50 mM single enantiomer, 50 mM buffer pH 7.6, enzyme B
T2 sequence (P00780 106-379): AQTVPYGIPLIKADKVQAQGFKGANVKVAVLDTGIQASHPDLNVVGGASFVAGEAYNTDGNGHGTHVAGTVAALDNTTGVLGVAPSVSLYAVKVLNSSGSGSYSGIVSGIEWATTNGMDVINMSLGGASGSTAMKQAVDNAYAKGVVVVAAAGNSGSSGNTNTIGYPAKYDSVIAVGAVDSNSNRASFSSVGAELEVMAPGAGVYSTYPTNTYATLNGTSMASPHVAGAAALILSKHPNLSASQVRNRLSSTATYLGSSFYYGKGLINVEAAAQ
Method: 15 ml of a solution containing one enantiomer of the ester at a concentration of 50 mM, and Na3 PO4 buffer at 50 mM and pH 7.6 wa observed using pH stat device 0.1 ml of a 50 mg/ml solution of enzyme B, made up from
as §2, with “the” for “15 ml of a solution containing one enantiomer of the ester at a concentration of 50 mM, and Na3 PO4 buffer at 50 mM and pH 7.6 was observed using a pH stat device. 0.1 ml of a 50 mg/ml solution of Enzyme J, made up from the”

[9] = test system: Protease XIV from Streptomyces griseus (Sigma, Enzyme I); experiment: pH-stat rate of hydrolysis of single enantiomers, Enzyme I; conditions: 50 mM single enantiomer, 50 mM buffer pH 7.6, enzyme I
Method: as §2, with “solution of protease enzyme I, made up” for “solution of Enzyme J, made up”, “for the protease enzyme. The” for “for the enzyme. The”

[10] = test system: Protease XXIII from Aspergillus oryzae (Sigma, Enzyme A); experiment: pH-stat rate of hydrolysis of single enantiomers, Enzyme A; conditions: 50 mM single enantiomer, 50 mM buffer pH 7.6, enzyme A
Method: 15 ml of a solution containing one enantiomer of the ester at a concentration of 50 mM, and Na3 PO4 buffer at 50 mM and pH 7.6 was observed using a pH stat device. 0.1 ml of a 50 mg/ml solution of enzyme A, made up from
Rates of hydrolysis of both enantiomers of the ester compound were
determined for the enzyme. The ratio of the rates of hydrolysis for the
two enantiomers for the two enantiomers with respect to the enzyme
indicate the stereospecificity of that enzyme's hydrolytic action on the […]

[11] = molecular target: T1, Protease XXVII, Nagarse (Sigma, Enzyme D); experiment: pH-stat rate of hydrolysis of single enantiomers, Enzyme D; conditions: 50 mM single enantiomer, 50 mM buffer pH 7.6, enzyme D
Method: as §2, with “enzyme D,” for “Enzyme J,”, “thioacetyl” for “acetylthio”

[12] = chiral HPLC, after 50% conversion

Compound	activity of the lipase against the ester [1]	conversion of racemic ester to acid ([2]; 100 mg Prozyme 6 (F), 3.22 gm ester in 100 ml 0.2M sodium phosphate pH 7.0, room temperature, 20 hours) [%]	conversion ([2]; 0.5M ester, 3 gm enzyme F, pH 7.0, 30 C, after 23.1 hours, 500000 µM) [%]	% e.e. [3] [%]	conversion of the racemic ester to ibuprofen acid ([4]; 2 gm Prozyme 6, 32.51 gm ester in 1000 ml 0.1M sodium phosphate pH 7.0, hexane extractant, room temperature, 6.3 hours) [%]	enantiomeric excess of R ibuprofen (acid product) [4, 12] [%]	enantiomeric excess of S ibuprofen (from unconverted ester hydrolyzed at pH 12) [4, 12] [%]	conversion [5] [%]	% CONVERSION [6] [%]	Rate of hydrolysis [7] [umols/hr/mg]	Rate of hydrolysis [8] [umols/hr/mg]	Rate of hydrolysis [9] [umols/hr/mg]	Rate of hydrolysis [10] [umols/hr/mg]	Rate of hydrolysis [11] [umols/hr/mg]
CC(C)Cc1ccc(C(C)C(=O)OCS(=O)(=O)O)cc1 (racemic) [Compound 1, Sodium Salt of 4-Sulfomethyl Ester of 2-(4-Isobutylphenyl)propanoic Acid]	inactive	45	40.9	> 99	50	99.3	98.9	24	34.0					
CC(=O)SC[C@@H](C)C(=O)OCS(=O)(=O)O [Compound 14, Potassium Salt of the Sulfomethyl Ester of D-(-)-S-3-Acetylthio-2-methylpropanoic Acid]										61	65	63	5.3	27
CC(=O)SC[C@H](C)C(=O)OCS(=O)(=O)O [Compound 15, Potassium Salt of the Sulfomethyl Ester of L-(+)-S-3-Acetylthio-2-methylpropanoic Acid]										65	135	105	12	29
